According to patent US8835403B2, “Algin oligosaccharides and the derivatives thereof as well as the manufacture and the use of the same” (priority 2004, dated 2014):

Legend:
SH-SY5Y cells [1] = assay: Apoptosis of SH-SY5Y induced by Aβ25-35 (propidium iodide flow cytometry); format: cell-based; details: 30 μM aged Aβ25-35 48 h, Aβ alone 24.8±1.9%
Method: SH-SY5Y cells are incubated in 6-well plates at a density of 2×10^5 cells per well. The day after plating, cells are pretreated with varying concentrations (0, 50, 100 μg/ml) of 6-mer for 24 h, followed by the addition of 30 μM aged Aβ25-35 (purchased from Sigma. Co.). After 48 h at 37° C., cells are digested, collected, washed, centrifuged at 1200 rpm and incubated with […] of a mixture of 5 mg/ml propidium iodide (Hyclone Co.) and 100 U/ml RNase (Hyclone Co.). Then the cells are measured by flow cytometry (BD Co., US), with 8000 cells per sample

Aβ1-40 [2] = target: T1, Aβ1-40 (Homo sapiens, UniProt P05067); assay: Fibril formation of Aβ1-40, Th-T fluorescence; format: biochemical; details: 24 h
Method: Fresh Aβ1-40 is incubated alone or with 6-mer (final concentration of 10, 50, and 100 μg/ml, respectively) at 37° C. for 24 h. After incubation, Th-T is added and fluorescence intensity is monitored at […].

SOD = SOD activity of cerebral cortex and hippocampus of Aβ1-40-induced AD mice; format: in vivo
MDA = MDA content of cerebral cortex and hippocampus of Aβ1-40-induced AD mice; format: in vivo
[3] = system: apoptotic cascade induced by Aβ; assay: Apoptotic cascade markers induced by Aβ; format: cell-based
[4] = system: AD mice induced by Aβ1-40; assay: Step-through passive avoidance task of AD mice induced by Aβ1-40; format: in vivo
Method: Male Balb/c mice (18-22 g, purchased from Laboratory Centre of Shandong University) are weighed and randomly assigned to six groups as follows: a control group, a model group, a low-concentration (15 mg/kg) 6-mer-treated group, a middle-concentration (30 mg/kg) 6-mer-treated group, a high-concentration (60 mg/kg) 6-mer-treated group, and a Huperzine A-treated (HBY, with a concentration of 0.2 mg/kg) group. The mice were oral administered with corresponding drugs on day 3 after grouping. The drugs were administered once a day consecutively with a dosage of 0.5 ml/20 g until the experiment is completed. The mice of control and model groups were simultaneously administered with an equivalent amount of normal saline.
On the 25th day after Aβ injection, mice are further trained for step-through passive avoidance task. In the task, each mouse is placed in the illuminated compartment of the apparatus, facing away from the dark compartment, and the door is opened, allowing access to the dark compartment. Once the mouse enters the dark compartment, it receives an inescapable electric shock on the feet (36 V) through the stainless steel grid floor. The test is similarly performed after 24 h. The entry time of each mouse into the dark chamber (step-through latency, maximum testing limited to 3 min) and the number of entries into the dark compartment (number of errors) are recorded.
Each group has 8 animals. The data are presented as mean±SE. The symbol # means significant difference compared with the control group (P<0.05). * means significant difference compared with the model group (P<0.05). The step-through latency of Aβ1-40-treated group is shortened (P<0.01) and the error number is increased (P<0.05) compared with that of the control group, indicating the successful establishment of AD mice.

Aβ1-40 [5] = target: T1, Aβ1-40; assay: SPR interaction of immobilized 6-mer and aged Aβ1-40; format: binding
Method: SPR technique (BIAcore X, Uppsala, Sweden) is used to characterize the interaction of 6-mer and Aβ. Different degree of aged Aβ1-40 (aged for 0, 0.5, 1, 2, 4, 6 d at 37° C.) in HBS EP buffer solution (0.01 […], 150 mmol/L NaCl, 3.4 mmol/L EDTA-Na2, 0.005 vol % Tween-20, pH 7.4) with 5 concentrations are flowed through the 6-mer-immobilized sensor chip. The flow rate is 5 μl/min, and the injection volume is 10 μl. The binding sensorgramm is recorded and the sensor chip is regenerated with 2M NaCl.

SH-SY5Y cells [6] = assay: Protection of SH-SY5Y cells impaired by Aβ25-35 and Aβ1-40; format: cell-based; details: 50 and 100 μg/ml; 30 μM aged Aβ25-35 or 2 μM Aβ1-40 for 48 h (FIG. 7, 8)
Method: 6-mer has similar protective effects on neuron cell line SH-SY5Y as the primary neurons. SH-SY5Y impaired with 30 μM of aged Aβ25-35 (FIG. 7) and 2 μM of Aβ1-40 (FIG. 8) for 48 h could induce a series of changes, for example, damage to the cells, reduced number of cells, occurrence of some round cells and suspension cells. Further, the survival rate of the cells is reduced to 73.3±9.4% and 64.1±2.5% respectively.

Na+, K+-ATPase = Na+, K+-ATPase activity in cerebral cortex and hippocampus of Aβ1-40-induced AD mice; format: in vivo
Method: Following the behavioral test, rats are decapitated. Cerebral cortex and hippocampus are dissected on ice immediately, and stored at −80° C. after quick freezing in liquid nitrogen for 1 hour. MDA, SOD, GSH-PX, Na^+, K^+-ATPase, AchE and CHAT activities in the brain regions are determined using the respective kits. The homogenates of cerebral cortex and hippocampus are prepared with saline with a final concentration of 10% and 5%. The supernatant were obtained after centrifuging at 3600 rpm to test MDA, CuZn-SOD, GSH-PX, Na^+K^+-ATPase, AchE, and CHAT activities. The activity of ChAT is determined with isotope-labeled method. The other indexes and amount of total proteins are tested with the respective kits supplied by Nanjing Jiancheng Bioengineering Institute.

ChAT = assay: Cerebral cortex ChAT activity of Aβ1-40-induced AD mice; format: in vivo

T1 sequence (P05067 672-711 limits assumed): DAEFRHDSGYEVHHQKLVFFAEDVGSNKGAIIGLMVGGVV

Question: `O=C(O)C1OC(OC2C(C(=O)O)OC(OC3C(C(=O)O)OC(OC4C(C(=O)O)OC(OC5C(C(=O)O)OC(OC6C(C(=O)O)OC(O)C(O)C6O)C(O)C5O)C(O)C4O)C(O)C3O)C(O)C2O)C(O)C(O)C1O` (stereo not drawn) [6-mer, mannuronic hexasaccharide] was tested. Which “percentage of hypodiploid cells” value (SH-SY5Y cells [1]; 50 μg/ml 6-mer 24 h pretreatment) did it give?
Answer: 10.2±1.3%

Question: And the “percentage of hypodiploid cells” value (SH-SY5Y cells [1]; 100 μg/ml 6-mer 24 h pretreatment)?
Answer: 5.1±0.7%

Question: What about the Th-T fluorescence intensity (Aβ1-40 [2]; 10 μg/ml 6-mer with fresh Aβ1-40, 37° C.) of the same compound?
Answer: 10.46±0.94

Question: What about the Th-T fluorescence intensity (Aβ1-40 [2]; 50 μg/ml 6-mer with fresh Aβ1-40, 37° C.) of the same compound?
Answer: 9.18±1.32

Question: And the Th-T fluorescence intensity (Aβ1-40 [2]; 100 μg/ml 6-mer with fresh Aβ1-40, 37° C.)?
Answer: 7.81±1.38

Question: What about the “SOD activity (NU/mg prot.) cerebral cortex” value (SOD; 15 mg/kg) of the same compound?
Answer: 49.35 ± 2.27 NU/mg prot.

Question: What about the “SOD activity (NU/mg prot.) cerebral cortex” value (SOD; 30 mg/kg) of the same compound?
Answer: 51.84 ± 2.07 NU/mg prot.

Question: And the “SOD activity (NU/mg prot.) cerebral cortex” value (SOD; 60 mg/kg)?
Answer: 57.50 ± 2.51 NU/mg prot.

Question: What about the “SOD activity (NU/mg prot.) hippocampus” value (SOD; 15 mg/kg) of the same compound?
Answer: 69.76 ± 6.12 NU/mg prot.

Question: And the “SOD activity (NU/mg prot.) hippocampus” value (SOD; 30 mg/kg)?
Answer: 61.72 ± 4.27 NU/mg prot.

Question: And the “SOD activity (NU/mg prot.) hippocampus” value (SOD; 60 mg/kg)?
Answer: 79.97 ± 7.34 NU/mg prot.

Question: What about the “MDA content (nmol/ml) cerebral cortex” value (MDA; 15 mg/kg) of the same compound?
Answer: 1.79 ± 0.15 nmol/mL

Question: What about the “MDA content (nmol/ml) cerebral cortex” value (MDA; 30 mg/kg) of the same compound?
Answer: 1.87 ± 0.18 nmol/mL

Question: What about the “MDA content (nmol/ml) cerebral cortex” value (MDA; 60 mg/kg) of the same compound?
Answer: 1.47 ± 0.11 nmol/mL

Question: And the “MDA content (nmol/ml) hippocampus” value (MDA; 15 mg/kg)?
Answer: 4.28 ± 0.82 nmol/mL

Question: And the “MDA content (nmol/ml) hippocampus” value (MDA; 30 mg/kg)?
Answer: 2.48 ± 0.43 nmol/mL

Question: And the “MDA content (nmol/ml) hippocampus” value (MDA; 60 mg/kg)?
Answer: 2.18 ± 0.43 nmol/mL

Question: And the “expression of Bcl-2” value [3]?
Answer: up-regulating

Question: What about the “expression of Caspase-3” value [3] of the same compound?
Answer: down-regulating

Question: What about the “expression of P53” value [3] of the same compound?
Answer: down-regulating

Question: And the “overload of intracellular calcium ion and ROS accumulation” value [3]?
Answer: reversing

Question: What about the number of errors ([4]; 6-mer-treated groups, vs model group (FIG. 6)) of the same compound?
Answer: significantly reduced

Question: What about the step-through latency ([4]; 30 and 60 mg/kg 6-mer, vs model group (FIG. 5)) of the same compound?
Answer: significantly prolonged

Question: And the Kd (Aβ1-40 [5]; Aβ1-40 aged 0.5 d at 37° C.)?
Answer: 107 nM

Question: And the Kd (Aβ1-40 [5]; Aβ1-40 aged 1 d at 37° C.)?
Answer: 90.6 nM

Question: And the Kd (Aβ1-40 [5]; Aβ1-40 aged 2 d at 37° C.)?
Answer: 54.3 nM

Question: What about the Kd (Aβ1-40 [5]; Aβ1-40 aged 4 d at 37° C.) of the same compound?
Answer: 21.5 nM

Question: What about the Kd (Aβ1-40 [5]; Aβ1-40 aged 6 d at 37° C.) of the same compound?
Answer: 14.5 nM

Question: What about the Kd (Aβ1-40 [5]; fresh Aβ1-40 (aged 0 d)) of the same compound?
Answer: 685 nM

Question: What about the “neurotoxicity of Aβ (survival rate, suspension cells)” value (SH-SY5Y cells [6]) of the same compound?
Answer: significantly inhibit the neurotoxicity of Aβ

Question: And the “ATPase activity (μmol Pi/mg prot./hour) cerebral cortex” value (Na+, K+-ATPase; 15 mg/kg)?
Answer: 1.08 ± 0.06 μmol Pi/mg prot./hour

Question: And the “ATPase activity (μmol Pi/mg prot./hour) cerebral cortex” value (Na+, K+-ATPase; 30 mg/kg)?
Answer: 1.09 ± 0.08 μmol Pi/mg prot./hour

Question: What about the “ATPase activity (μmol Pi/mg prot./hour) cerebral cortex” value (Na+, K+-ATPase; 60 mg/kg) of the same compound?
Answer: 1.08 ± 0.05 μmol Pi/mg prot./hour

Question: And the “ATPase activity (μmol Pi/mg prot./hour) hippocampus” value (Na+, K+-ATPase; 15 mg/kg)?
Answer: 2.10 ± 0.29 μmol Pi/mg prot./hour

Question: And the “ATPase activity (μmol Pi/mg prot./hour) hippocampus” value (Na+, K+-ATPase; 30 mg/kg)?
Answer: 2.07 ± 0.23 μmol Pi/mg prot./hour

Question: And the “ATPase activity (μmol Pi/mg prot./hour) hippocampus” value (Na+, K+-ATPase; 60 mg/kg)?
Answer: 2.52 ± 0.25 μmol Pi/mg prot./hour

Question: What about the “ChAT activity (pmol/mg prot./min)” value (ChAT; 15 mg/kg) of the same compound?
Answer: 90.94 ± 3.77 pmol/mg prot./min

Question: And the “ChAT activity (pmol/mg prot./min)” value (ChAT; 30 mg/kg)?
Answer: 99.98 ± 5.07 pmol/mg prot./min

Question: And the “ChAT activity (pmol/mg prot./min)” value (ChAT; 60 mg/kg)?
Answer: 94.69 ± 5.83 pmol/mg prot./min
